Measured values taken from PubChem BioAssay (NCI).
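Growth conditions: 96-well plates. Treatment: test compound, 48 hours, 5 concentrations. Analysis: linear interpolation between bracketing concentrations; unreached endpoints set to highest concentration. Here, GI50 denotes the concentration required for 50% inhibition of growth. TGI denotes the concentration required for complete inhibition of growth.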

system: RXF 393 renal; assay: inhibition of tumour cell growth, NCI panel, 48 h

Row | Compound | TGI | GI50
1 | Cc1ccc(Oc2ccc(C)cc2N)cc1 | > 100 µM | 
2 | c1ccc(NCn2cnc3ccccc32)cc1 | > 100 µM | 
3 | Cc1cc2c(C)[nH]nc2c(C(=O)O)c1C | > 100 µM | 
4 | N#C/C(=C\c1cccc(Cl)c1Cl)c1ccccc1 | > 79.2 µM | 
5 | C/C(=N/Nc1ccc([N+](=O)[O-])cc1[N+](=O)[O-])C(CC(C(=O)NCc1ccccc1)/C(C)=N\Nc1ccc([N+](=O)[O-])cc1[N+](=O)[O-])C(=O)NCc1ccccc1 (configuration not stated) | 15 µM | 
6 | COc1ccc(-c2cn[nH]c2-c2cc(OC)c(OC)c(OC)c2)cc1 | 25.1 µM | 0.0269 µM
7 | N[C@@H]1CCCC[C@@H]1N.O=P([O-])([O-])CN(CCN(CP(=O)([O-])[O-])CP(=O)([O-])[O-])CP(=O)([O-])[O-].[Pt+2] | > 25 µM | > 25 µM
8 | COc1ccc(OC)c(N2CC(N)C2=O)c1 (configuration not stated) | > 100 µM | 
9 | Nc1ccccc1SC(CC(=O)c1ccccc1)c1cccc([N+](=O)[O-])c1 (configuration not stated) | 28.6 µM | 15 µM
10 | O=c1ccc2ccccc2cc1[O-].O=c1ccc2ccccc2cc1[O-].[O]=[U+2]=[O] | 40 µM | 14.4 µM
11 | Cc1ccc(-n2c3nc(=O)[nH]c(=O)c-3cc3cc([N+](=O)[O-])ccc32)cc1 | > 100 µM | 49.9 µM
12 | COC(=O)C(CCCN1C(=O)c2ccccc2C1=O)C(=O)OC | > 100 µM | 
13 | COc1nc(NC2OC(COC(C)=O)C(OC(C)=O)C(OC(C)=O)C2OC(C)=O)c2c(OC(C)=O)cc(=O)oc2n1 (configuration not stated) | > 100 µM | 
14 | CC(C)(C)c1cc2c(O)c3cccc4c(=O)c5cccc6c5-c(c34)c2c(c1)c6=O | 97.8 µM | 
15 | O=C1C=CC(=O)c2nc3c(cc21)CCC3 | 34.2 µM | 
16 | O=S(=O)(N/N=C/c1cccc(/C=N/NS(=O)(=O)c2ccccc2)c1)c1ccccc1 | > 100 µM | 
17 | CCCCN(CCCC)C(=O)C(=O)C(C(=O)c1ccc(OC)cc1)c1ccc(OC)cc1 (configuration not stated) | > 100 µM | 
18 | C=C(C)CCOC(c1ccccc1)(c1ccccc1)c1ccccc1 | 82.8 µM | 
19 | CCn1c(-c2nonc2N)nc2c(C#CC(C)(C)O)nc(OC[C@@H](N)c3ccccc3)cc21 | 5.97 µM | 2.85 µM
20 | Cn1ccc2c3c(Oc4ccc(NC(N)=O)cc4)ccnc3ccc21 | > 100 µM | > 100 µM
21 | CC(=O)O/N=C(/C)c1ccccc1O | > 100 µM | 
22 | CC(=O)OCCOCNC(=S)N/N=C(\C)c1cnccn1 | > 100 µM | 
23 | O=C(Nc1ccccc1-c1nn(C(=S)Nc2ccccc2)c(=S)n(C(=S)Nc2ccccc2)c1=O)C(F)(F)F | > 100 µM | 
24 | O=c1c(-c2ccccc2)c2oc(c1-c1ccccc1)CSCc1cccc(c1)CSC2 | 50.7 µM | 

system: HOP-92 NSCLC; assay: inhibition of tumour cell growth, NCI panel, 48 h

Row | Compound | TGI | GI50
25 | COC(=O)CC(c1ccccc1)C1(c2ccccc2)SCCS1 (configuration not stated) | 187 µM | 
26 | CC(=O)NNc1nc(C)c(C(=O)/C=C/c2ccc(NC(C)=O)cc2)s1 | > 100 µM | 
27 | NC(=O)c1ccccc1NC(=O)C(=O)C(C(=O)c1ccc(Cl)c(Cl)c1)C1OC(=O)c2ccccc21 (configuration not stated) | > 100 µM | 
28 | S=c1sc2c(n1-c1ccccc1)NC=NC2S (configuration not stated) | 71.1 µM | 
29 | Cc1ccc(/C=C/C(=O)CCN(C)C)cc1 | 38.1 µM | 
30 | Cc1ccc(Oc2ccc(C)cc2N)cc1 | 95.3 µM | 
31 | O=C(Oc1ccc(Cl)cc1)c1ccccc1Nc1ccnc(C(F)(F)F)c1 | > 100 µM | 20.8 µM
32 | N#C/C(=C\c1cccc(Cl)c1Cl)c1ccccc1 | > 82.3 µM | 
33 | C/C(=N/Nc1ccc([N+](=O)[O-])cc1[N+](=O)[O-])C(CC(C(=O)NCc1ccccc1)/C(C)=N\Nc1ccc([N+](=O)[O-])cc1[N+](=O)[O-])C(=O)NCc1ccccc1 (configuration not stated) | 7.98 µM | 
34 | COc1ccc(-c2cn[nH]c2-c2cc(OC)c(OC)c(OC)c2)cc1 | 9.79 µM | 0.0407 µM
35 | CCC(=C/[C@H](C)C/C=C/C(C)=C/[C@@H](C)C(=O)[C@@H](C)[C@H](O)[C@@H](C)CC)/C=C/[C@H]1OC(=O)C=C[C@@H]1C | 1.2 µM | < 0.01 µM
36 | COc1ccc(OC)c(N2CC(N)C2=O)c1 (configuration not stated) | > 100 µM | 
37 | O=C(/C=C/c1ccc([N+](=O)[O-])cc1)c1ccc(NCc2nc3ccccc3[nH]2)cc1 | 21.8 µM | 
38 | Cc1cccc(C)c1NC(=O)CCCC(=O)C1/C(=N/NC(=O)CC#N)CCC/C1=N\NC(=O)CC#N (configuration not stated) | > 100 µM | 
39 | COc1ccc2nc(NC(=O)CSc3nnc4n3S(=O)(=O)c3ccccc3N4c3ccccc3)sc2c1 | > 100 µM | 42.7 µM
40 | O=c1ccc2ccccc2cc1[O-].O=c1ccc2ccccc2cc1[O-].[O]=[U+2]=[O] | 72.1 µM | 28.1 µM
